Laboratory results reported in article PMC8608967, “KDS2010, a Newly Developed Reversible MAO-B Inhibitor, as an Effective Therapeutic Candidate for Parkinson’s Disease” (Neurotherapeutics, 2021).

Experiments:
[1] = biological target: T1, human recombinant MAO-B (hMAO-B) (Homo sapiens, UniProt P27338); assay: In vitro MAO-B enzyme assay (H2O2 release, absorbance 570 nm); format: biochemical
T1 construct: purchased Sigma Aldrich
T1 sequence (P27338 1-520): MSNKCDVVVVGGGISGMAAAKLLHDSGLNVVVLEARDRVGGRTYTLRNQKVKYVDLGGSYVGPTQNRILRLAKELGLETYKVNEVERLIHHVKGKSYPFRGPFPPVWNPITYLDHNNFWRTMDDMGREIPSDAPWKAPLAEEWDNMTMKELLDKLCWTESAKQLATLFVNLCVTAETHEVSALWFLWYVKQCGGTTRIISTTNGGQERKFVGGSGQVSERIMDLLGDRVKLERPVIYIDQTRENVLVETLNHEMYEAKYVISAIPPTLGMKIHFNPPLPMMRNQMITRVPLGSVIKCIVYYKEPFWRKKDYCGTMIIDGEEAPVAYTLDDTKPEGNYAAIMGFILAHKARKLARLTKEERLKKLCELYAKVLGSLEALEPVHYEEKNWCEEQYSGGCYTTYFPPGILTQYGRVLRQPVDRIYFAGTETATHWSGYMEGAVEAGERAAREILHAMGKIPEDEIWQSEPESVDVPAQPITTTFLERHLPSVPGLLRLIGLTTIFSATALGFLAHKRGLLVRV
Protocol: In brief, human recombinant MAO-A (hMAO-A) and MAO-B (hMAO-B) (Sigma Aldrich) were diluted in 50 mM phosphate buffer (~ 0.3 μg MAO-A protein/well or ~ 2.5 μg MAO-B protein/well), and the test compound was added in DMSO to a final concentration from 0.1 nM to 10 μM. The amount of hydrogen peroxide (H2O2) released after addition of enzyme substrate (p-tyramine for MAO-A or benzylamine for MAO-B) was quantified by measuring the absorbance increase at 570 nm on a microplate reader.

[2] = tested on: MPTP-induced PD mouse model; assay: MPTP mouse model: vertical grid test and coat hanger test; format: in vivo; conditions: MPTP mice
Protocol: Group allocation and outcome assessment, but not the conduct of experiments and data analysis, were performed in a blinded manner. Throughout the study, confounders were not controlled. An acclimation period of 7 days was allowed for animals to stabilize in a new environment before model induction. […] Treatment drugs were dissolved in 100 μL of water and total dose (in mg) was calculated according to individual body weight (in kg).
The MPTP model was established using the acute regimen of four intraperitoneal (i.p.) injections of MPTP-HCl (M0896, Sigma Aldrich, 2 mg/mL in saline, 20 mg/kg for one injection) at 2-h intervals.
Motor deficits of the MPTP-induced PD mouse model were assessed using the vertical grid test as described in the previous study [23]. Briefly, after 2 days of habituation to the testing apparatus, individual mice were gently placed 3 cm from the top, facing upward, and allowed to turn around and climb down. We also performed a coat hanger test as described [24–26]. Briefly, a mouse was gently hung on the middle of a coat hanger and allowed to ascend to the top. Performance was graded as follows: 0, falling off the hanger within 20 s; 1, moving to the side-bar of the hanger; 2, reaching the side-bar of the hanger; 3, climbing the side-bar of the hanger; 4, moving to the top of the hanger; 5, climbing and reaching the safe zone. The test was performed twice and each trial lasted a maximum of 3 min.

[3] = tested on: MPTP-induced PD mouse model; assay: MPTP mouse model: glial reactivity (GFAP, LCN2, Iba1 staining, western blot); format: in vivo; conditions: MPTP mice
Protocol: (§1) Throughout the study, confounders were not controlled.
After extensive washing, sections were incubated with corresponding fluorescent secondary antibodies for 2 h and then washed with three times in PBS. Finally, sections were mounted with fluorescent mounting medium (S3023, Dako) and dried. A series of fluorescent images were obtained using an A1 Nikon confocal microscope, and Z-stack images in 3-μm steps were processed for further analysis using ImageJ. Any alteration in brightness or contrast was applied equally to the entire image set.

[4] = tested on: A53T mutant α-synuclein-overexpressing PD model rats; assay: A53T mutant α-synuclein rat model: stepping test and cylinder test; format: in vivo; conditions: 10 mg/kg/day for 15 days
Protocol: as §1
Motor dysfunction of A53T α-synuclein model rats was tested using the forelimb-use asymmetry test (cylinder test). Briefly, animals were placed in a transparent Plexiglas cylinder (20 cm in diameter and 30 cm in height) for 2 min to assess the frequency of ipsilesional and contralesional forelimb usage against the cylinder wall for supporting an upright body posture. The test score was calculated as the ratio of ipsilateral usage frequency to total ipsilateral plus contralateral usage frequency.

[5] = Pharmacokinetic study in cynomolgus monkeys (N118029); format: in vivo, cynomolgus monkey (Macaca fascicularis); conditions: male, cynomolgus monkey, plasma, po
Protocol: All animals were at least 24 months old. […] Males and females were assigned to treatment groups in a stratified manner using the Pristima System based on most recent body weight. Clinical signs, including mortality, moribundity, general appearance, and behavioral changes, were recorded with date, time, and duration. Body weight was measured prior to the first KDS2010 dose. For oral administration, KDS2010 was dissolved in water. In total, 42 monkeys were administered KDS2010 and ultimately sacrificed for autopsy.
In the pharmacokinetic study (N118029), six male monkeys were assigned to 2 groups receiving either 10 or 30 mg/kg oral KDS2010. […] Blood samples were mixed gently, stored in a wet-ice cryo-rack, and centrifuged (approximately 13,200 rpm, 5 min, 4°C) to obtain plasma. The separated plasma was aliquoted into polypropylene tubes and stored frozen until analysis.
A non-compartmental analysis module in Phoenix® WinNonlin® (version 6.4) (Certara Inc., CA, USA) was used to calculate pharmacokinetic (PK) parameters. Systemic exposure to KDS2010 was calculated by applying the linear trapezoidal rule to the area under the plasma concentration–time curve from time zero to the last quantifiable time point (AUClast), and the maximum observed peak plasma concentration (Cmax) and the time to reach Cmax (Tmax) were determined based on the observed data.

[6] = biological target: T1, human recombinant MAO-B (hMAO-B); conditions: cited from earlier work
[7] = biological target: T2, human recombinant MAO-A (hMAO-A) (Homo sapiens, UniProt P21397); conditions: ref Park, JH. et al. Science Advances. 5(3), eaav0136 (2019), read-out: Inhibition (IC50) MAO-A; cited from earlier work
T2 construct: purchased Sigma Aldrich
T2 sequence (P21397 1-527): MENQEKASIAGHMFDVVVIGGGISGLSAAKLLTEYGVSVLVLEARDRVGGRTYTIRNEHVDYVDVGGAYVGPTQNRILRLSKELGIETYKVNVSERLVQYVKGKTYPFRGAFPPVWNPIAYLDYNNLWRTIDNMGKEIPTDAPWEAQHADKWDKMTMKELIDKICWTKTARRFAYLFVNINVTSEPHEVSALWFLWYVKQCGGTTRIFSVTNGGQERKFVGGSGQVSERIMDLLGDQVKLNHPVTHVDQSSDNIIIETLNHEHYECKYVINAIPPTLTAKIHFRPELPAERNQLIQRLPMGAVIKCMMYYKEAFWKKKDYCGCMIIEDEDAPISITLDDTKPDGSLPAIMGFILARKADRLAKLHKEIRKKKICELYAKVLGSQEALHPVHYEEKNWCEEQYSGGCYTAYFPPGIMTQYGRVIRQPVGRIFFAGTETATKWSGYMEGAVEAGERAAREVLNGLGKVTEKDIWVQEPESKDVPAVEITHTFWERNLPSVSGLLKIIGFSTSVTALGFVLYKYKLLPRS

[8] = tested on: APP/PS1 transgenic mouse model of AD; design: method as in PMID 30906861; conditions: APP/PS1 mice; short-term (3 days) or long-term (30 days) treatment; cited from earlier work
[9] = tested on: post-stroke recovery; design: method as in PMID 32640227; conditions: long-term treatment accompanied by rehabilitation training; cited from earlier work
[10] = long-term (30-day) treatment, 10 mg/kg/day oral
[11] = post-treatment, administered 3 days after MPTP
[12] = pre-treatment, 10 mg/kg/day oral, 3 days starting 1 day before MPTP

## C[C@H](NCc1ccc(-c2ccc(C(F)(F)F)cc2)cc1)C(N)=O [Compound 18j]
[1]
  higher MAO-B inhibitory effect of (S)-stereoisomer than (R)-isomer (19j): eightfold
[2]; [10]
  vertical grid test: time to turn: reduced
  vertical grid test: total time: reduced
[2]; [11]
  coat hanger test: motor score: increased
  vertical grid test: rate of missed steps: significantly reduced
  vertical grid test: time to turn: significantly reduced
  vertical grid test: total time: significantly reduced
[2]; [12]
  vertical grid test: rate of missed steps: significantly reduced
  vertical grid test: time to turn: significantly reduced
  vertical grid test: total time: significantly reduced
[2]; pre-treatment, 10 mg/kg/day oral, vehicle-treated controls 1.8 ± 0.4, score 0-5
  coat hanger test: motor function score: 3.6 ± 0.5
[3]
  GFAP staining intensity in SNpc: significantly reduced
  LCN2 expression in GFAP-positive astrocytes: reversed
  number of Iba1-positive microglia in SNpc: significantly reduced
  reactive transformation of microglia (larger cell bodies, shorter processes): reversed
  volume of GFAP-positive astrocytes in SNpc (hypertrophy): eliminated
[3]; SNpc
  MPTP-induced changes of TH, GFAP and iNOS expression (western blotting): all of these changes were reversed
[4]
  cylinder test: asymmetric usage of forelimbs: alleviated
  stepping test: impaired stepping behavior of the contralateral forepaw: significantly alleviated
[5]; 10 mg/kg
  AUC: 30600 ± 422 ng·h/mL
  Cmax: 2230 ± 143 ng/mL
[5]; 30 mg/kg
  AUC: 80800 ± 5370 ng·h/mL
  Cmax: 4850 ± 568 ng/mL
[6]; same binding cavity as selegiline
  mode of MAO-B inhibition: competitive inhibitor
[6]; with enantiomeric selectivity
  reversibility of MAO-B inhibition: reversible
[7]
  IC50: > 100 µM
[8]
  memory impairment: effectively ameliorated
[9]
  post-stroke recovery: dramatically improved
